Experimental data taken from patent US4820834A, “Benzodiazepine analogs” (priority 1987, dated 1989).
Where a name gives a salt, the structure may show the parent alone. Read-outs that look alike come from different tables or passages of the source.

Legend:
CCK receptor (pancreas) = target: T1, CCK receptor (pancreas) (Rattus norvegicus, UniProt P30551); assay: CCK Receptor Binding (Pancreas): inhibition of ^125 I-CCK-33 binding; parameters: species or system Male Sprague-Dawley rats
T1 construct: The whole pancreas was dissected free of fat tissue and was homogenized; from tissue; host or cells: rat pancreas membranes (Sprague-Dawley)
T1 sequence (P30551 1-444): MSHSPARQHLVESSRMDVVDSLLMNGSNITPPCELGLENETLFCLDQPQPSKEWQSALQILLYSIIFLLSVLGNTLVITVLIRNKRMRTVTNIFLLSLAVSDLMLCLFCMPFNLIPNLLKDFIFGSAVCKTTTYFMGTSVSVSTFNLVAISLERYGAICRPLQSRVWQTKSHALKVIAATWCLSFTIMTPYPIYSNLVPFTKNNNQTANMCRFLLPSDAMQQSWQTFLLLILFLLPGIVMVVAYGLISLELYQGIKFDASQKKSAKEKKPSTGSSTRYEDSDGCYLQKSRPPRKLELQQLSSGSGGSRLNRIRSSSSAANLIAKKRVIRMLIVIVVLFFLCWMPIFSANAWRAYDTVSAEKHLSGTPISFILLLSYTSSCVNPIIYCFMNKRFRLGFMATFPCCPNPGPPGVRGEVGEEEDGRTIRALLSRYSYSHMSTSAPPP
Method in brief: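 Bound ^125I-CCK-33 was counted in pellets after a 30 min, 37° C incubation followed by centrifugation. Membranes came from male Sprague-Dawley rat pancreas, assayed in Tris HCl pH 7.7 containing DTT, bacitracin, PMSF and o-phenanthroline. For Scatchard analysis, tracer was diluted with rising unlabelled CCK-33.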

[1] = target: T2, CCK receptor (brain, cerebral cortex) (Cavia porcellus, UniProt H0VZC5); assay: biochemical; format: binding, Male Hartley guinea pigs
T2 construct: Cerebral cortex was dissected and used as a receptor source; from tissue; host or cells: guinea pig cerebral cortex membranes (male Hartley)
T2 sequence (H0VZC5 1-426): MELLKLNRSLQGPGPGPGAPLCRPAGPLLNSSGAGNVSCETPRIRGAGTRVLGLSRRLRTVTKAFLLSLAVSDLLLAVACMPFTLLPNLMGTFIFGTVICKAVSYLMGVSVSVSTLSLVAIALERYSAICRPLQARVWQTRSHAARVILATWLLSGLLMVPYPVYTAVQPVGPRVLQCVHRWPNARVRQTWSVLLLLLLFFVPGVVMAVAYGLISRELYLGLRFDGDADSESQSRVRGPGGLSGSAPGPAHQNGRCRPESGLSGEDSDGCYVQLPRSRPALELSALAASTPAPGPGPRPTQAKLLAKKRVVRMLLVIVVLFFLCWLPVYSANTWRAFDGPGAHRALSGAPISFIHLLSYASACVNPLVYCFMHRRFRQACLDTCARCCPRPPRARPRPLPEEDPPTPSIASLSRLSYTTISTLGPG
Method in brief: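 Binding of [radiolabeled] CCK-33 measured by gamma counting of centrifuged pellets after 2 h at 25°C. Membranes came from guinea pig brain cortex, suspended in 10 mM HEPES, 5 mM MgCl2, 1 mM EGTA, 0.25 mg/ml bacitracin, 0.4% BSA.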

[2] = target: T3, Gastrin receptor (gastric glands) (Cavia porcellus, UniProt H0VZC5); assay: Gastrin Receptor Binding in Guinea Pig Gastric Glands; parameters: species or system guinea pig (male Hartley)
T3 construct: The washed guinea pig gastric glands prepared as above were resuspended; from tissue; host or cells: guinea pig gastric mucosal glands (male Hartley)
T3 sequence (H0VZC5 1-426): T2 sequence (H0VZC5 1-426)

[3] = rat pancreas membranes, ^125 I-CCK-33, 37° C., 30 minutes; read-out: IC50 ^125 I-CCK Pancreas
[4] = guinea pig cerebral cortex, ^125 I-CCK-33, 25° C., 2 hours; read-out: IC50 ^125 I-CCK Brain
[5] = ^125 I-gastrin, 25° C., 30 minutes, read-out: IC50 ^125 I-Gastrin Gastric Glands
[6] = IC50 ^125 I-CCK Pancreas, rat pancreas membranes, ^125 I-CCK-33, 37° C., 30 minutes
[7] = IC50 ^125 I-CCK Brain, guinea pig cerebral cortex, ^125 I-CCK-33, 25° C., 2 hours
[8] = IC50 ^125 I-Gastrin Gastric Glands, 25° C., 30 minutes

Row | Structure (SMILES) | IC50 [1, 4] | IC50 [2, 5] | IC50 (CCK receptor (pancreas); [6]) | IC50 [1, 7] | IC50 [2, 8] | other results
1 | O=C(c1ccccc1F)c1ccccc1NC(=O)C(CN1C(=O)c2ccccc2C1=O)N1C(=O)c2ccccc2C1=O (racemic) [Example 62, 2-N-[2(RS)-3-diphthalylaminopropanoyl]amino-2'-fluorobenzophenone] | > 100 µM | > 1000 µM | – | – | – | IC50 (CCK receptor (pancreas); [3]): > 100 µM
2 | COc1cccc(NC(=O)NC2N=C(c3ccccc3F)c3ccccc3N(C)C2=O)c1 (stereo not drawn) [Example 246, N-(5-(2-Fluorophenyl)-2,3-dihydro-1-methyl-2-oxo-1H-1,4-benzodiazepin-3-yl)-N'-(3-methoxyphenyl)-urea] | 0.002 µM | 0.0024 µM | 0.0019 µM | – | – | –
3 | CCN(CC)C(=O)CN1C(=O)C(NC(=O)Nc2ccccc2Cl)N=C(c2ccccc2)c2ccccc21 (stereo not drawn) [Example 286, 3-{[((2-Chlorophenyl)amino)carbonyl]amino}-N,N-diethyl-2,3-dihydro-2-oxo-5-phenyl-1H-1,4-benzodiazepine-1-acetamide] | 0.0038 µM | 0.0015 µM | > 0.1 µM | – | – | –
4 | CN1C(=O)C(Cc2cn(C)c3ccccc23)N=C(c2ccccc2)c2ccccc21 (stereo not drawn) [Example 200, 1,3-Dihydro-1-methyl-3-((1-methyl-1H-indol-3-yl)methyl)-5-phenyl-2H-1,4-benzodiazepin-2-one] | 63 µM | 67 µM | 0.1 µM | – | – | –
5 | CN1C(=O)C(O)(C(=O)c2ccsc2)N=C(c2ccccc2)c2ccccc21 (racemic) [Example 53a, 1,3-Dihydro-3-(RS)-hydroxy-1-methyl-5-phenyl-3-(3'-thienoyl)-2H-1,4-benzodiazepin-2-one] | 4.2 µM | 0.85 µM | 100 µM | – | – | –
6 | O=C(CNc1ccccc1)NC1N=C(c2ccccc2F)c2ccccc2NC1=O (racemic) [Example 125, 1,3-Dihydro-3-(RS)-(phenylaminomethylcarbonyl)amino-5-(2-fluorophenyl)-2H-1,4-benzodiazepin-2-one] | – | – | 0.9 µM | 100 µM | > 10 µM | –
7 | COc1cccc(NC(=O)NC2N=C(c3ccccc3)c3ccc(C)cc3N(C)C2=O)c1 (stereo not drawn) [Example 295, N-(3-Methoxyphenyl)-N'-(2,3-dihydro-1,8-dimethyl-2-oxo-5-phenyl-1H-1,4-benzodiazepin-3-yl)-urea] | 0.015 µM | 0.034 µM | 0.003 µM | – | – | –
8 | CN1C(=O)C(NC(=O)Nc2cccc([N+](=O)[O-])c2)N=C(c2ccccc2)c2ccccc21 (stereo not drawn) [Example 264, N-(2,3-Dihydro-1-methyl-2-oxo-5-phenyl-1H-1,4-benzodiazepin-3-yl)-N'-(3-nitrophenyl)-urea] | – | – | – | 0.011 µM | 0.006 µM | IC50 (CCK receptor (pancreas); [3]): 0.034 µM
9 | O=C(OC1N=C(c2ccccc2F)c2ccccc2NC1=O)c1ccc(Cl)cc1 (racemic) [Example 179, 1,3-Dihydro-5-(2-fluorophenyl)-3(RS)-(4-chlorobenzoyl)oxy-2H-1,4-benzodiazepin-2-one] | – | – | 4.4 µM | 3.6 µM | 18 µM | –
10 | CN1C(=O)C(NC(=O)c2ccc(C(C)(C)C)cc2)N=C(c2ccccc2F)c2ccccc21 (stereo not drawn) [Example 226, 4-(1,1-Dimethylethyl)-N-(5-(2-fluorophenyl)-2,3-dihydro-1-methyl-2-oxo-1H-1,4-benzodiazepin-3-yl)-benzamide] | 2.3 µM | 6.4 µM | < 0.1 µM | – | – | –
11 | Cc1ccc(NC(=O)NC2N=C(c3ccccc3)c3ccccc3N(C)C2=O)cc1 (stereo not drawn) [Example 252, N-(2,3-Dihydro-1-methyl-2-oxo-5-phenyl-1H-1,4-benzodiazepin-3-yl)-N'-(4-methylphenyl)-urea] | – | – | – | 0.006 µM | 0.0035 µM | IC50 (CCK receptor (pancreas); [3]): 0.057 µM
12 | O=CNc1ccccc1C(=O)CC1N=C(c2ccccc2F)c2ccccc2NC1=O (stereo not drawn) [Example 104, 1,3-Dihydro-5-(2-fluorophenyl)-3-(2-formylaminobenzoylmethyl)-2H-1,4-benzodiazepin-2-one] | > 100 µM | > 100 µM | 0.3 µM | – | – | –
13 | CN1C(=O)[C@@H](Cc2c[nH]c3ccccc23)N=C(c2ccccc2)c2ccccc21 [Example 210, (R)-1,3-Dihydro-3-(1H-indol-3-ylmethyl)-1-methyl-5-phenyl-2H-1,4-benzodiazepin-2-one] | – | – | 0.3 µM | 10 µM | 21 µM | –
14 | CC(C)CC(N)C(=O)N1CC(CC2N=C(c3ccccc3)c3ccccc3NC2=O)c2ccccc21 (stereo not drawn) [Example 227, 1-(2-Amino-4-methyl-1-oxopentyl)-3-((2,3-dihydro-2-oxo-5-phenyl-1H-1,4-benzodiazepin-3-yl)methyl)-2,3-dihydro-1H-indole hydrochloride] | – | – | 6.6 µM | 50 µM | > 100 µM | –
15 | CCOC(=O)CN1C(=O)C(NC(=O)Nc2ccc(Cl)cc2)N=C(c2ccccc2)c2ccccc21 (stereo not drawn) [Example 204, 3-((((4-Chlorophenyl)amino)carbonyl)amino)-2,3-dihydro-2-oxo-5-phenyl-1H-1,4-benzodiazepine-1-acetic acid ethyl ester] | – | – | – | 0.001 µM | 0.0033 µM | IC50 (CCK receptor (pancreas); [3]): 0.37 µM
16 | CCOC(=O)CCN1C(=O)C(NC(=O)OCc2ccccc2)N=C(c2ccccc2)c2ccccc21 (stereo not drawn) [Example 229, 2,3-Dihydro-2-oxo-5-phenyl-3-(((phenylmethoxy)carbonyl)amino)-1H-1,4-benzodiazepine-1-propanoic acid ethyl ester] | 0.44 µM | 0.26 µM | 1.2 µM | – | – | –
17 | O=C1Nc2ccc(Cl)cc2C(c2ccccc2)=N[C@@H]1COCc1ccccc1 [Example 15, 3(R)-Benzyloxymethyl-7-chloro-1,3-dihydro-5-phenyl-2H-1,4-benzodiazepin-2-one] | – | – | 60 µM | 80 µM | 38 µM | –
18 | CN1C(=O)[C@@H](Cc2cn(C(=O)c3ccc(Cl)cc3)c3ccccc23)N=C(c2ccccc2F)c2ccccc21 [Example 45, 1,3-Dihydro-5-(2-fluorophenyl)-3(R)-[3'-(1'-p-chlorobenzyloylindolyl)methyl]-1-methyl-2H-1,4-benzodiazepin-2-one] | – | – | – | – | – | IC50 (CCK receptor (pancreas); read-out: IC50 ^125 I-CCK Pancreas; rat pancreas membranes, ^125 I-CCK-33, 37° C., 30 minutes): 10.6 µM; IC50 ([1]; read-out: IC50 ^125 I-CCK Brain; guinea pig cerebral cortex, ^125 I-CCK-33, 25° C., 2 hours): > 100 µM; IC50 ([2]; read-out: IC50 ^125 I-Gastrin Gastric Glands, 25° C., 30 minutes): > 1000 µM
19 | N#Cc1ccc(C(=O)NC2N=C(c3ccccc3)c3ccccc3NC2=O)cc1 (racemic) [Example 149, 3-(RS)-(4'-Cyanobenzoylamino)1,3-dihydro-5-phenyl-2H-1,4-benzodiazepin-2-one] | – | – | 0.73 µM | > 100 µM | 22 µM | –
20 | O=C(O)CN1C(=O)C(NC(=O)Nc2ccc(Cl)cc2)N=C(c2ccccc2)c2ccccc21 (stereo not drawn) [Example 202, 3-((((4-Chlorophenyl)amino)carbonyl)amino)-2,3-dihydro-2-oxo-5-phenyl-1H-1,4-benzodiazepine-1-acetic acid] | 0.072 µM | 0.12 µM | – | – | – | IC50 (CCK receptor (pancreas); [3]): 0.056 µM
21 | CN1C(=O)[C@@H](NC(=O)C2CCCCC2)N=C(c2ccccc2)c2ccccc21 [Example 191, (S)-N-(2,3-Dihydro-1-methyl-2-oxo-5-phenyl-1H-1,4-benzodiazepin-3-yl)-cyclohexanecarboxamide] | > 100 µM | > 100 µM | – | – | – | IC50 (CCK receptor (pancreas); [3]): 0.8 µM
22 | CC(C)CC(=O)N[C@H]1N=C(c2ccccc2)c2ccccc2N(C)C1=O [Example 190, (S)-N-(2,3-Dihydro-1-methyl-2-oxo-5-phenyl-1H-1,4-benzodiazepin-3-yl)-3-methylbutanamide] | > 100 µM | 130 µM | 0.78 µM | – | – | –
